Laboratory results reported in patent publication US4242335A, “Novel 17α-aryl-steroids” (Roussel Uclaf, priority 1977, dated 1980).

Columns and labels:
[1] = biological target: T1, uterine reception of progesterone (Oryctolagus cuniculus, UniProt P06186); test: Progestomimetic activity by hormonal receptor method (displacement of tritiated product R in rabbit uterus cytosol); assay type: binding; details: for progestomimetic activity (in words): conclusion from Table I; for relative affinity of the test product (ARL), progestomimetic: rabbit uterus cytosol, 0° C., 2 hours, progesterone = 100; for activity weaker than progesterone: from Table I
T1 construct: from tissue; host or cells: uterus cytosol (105,000 g supernatant) of immature rabbits primed with estradiol
T1 sequence (P06186 1-930): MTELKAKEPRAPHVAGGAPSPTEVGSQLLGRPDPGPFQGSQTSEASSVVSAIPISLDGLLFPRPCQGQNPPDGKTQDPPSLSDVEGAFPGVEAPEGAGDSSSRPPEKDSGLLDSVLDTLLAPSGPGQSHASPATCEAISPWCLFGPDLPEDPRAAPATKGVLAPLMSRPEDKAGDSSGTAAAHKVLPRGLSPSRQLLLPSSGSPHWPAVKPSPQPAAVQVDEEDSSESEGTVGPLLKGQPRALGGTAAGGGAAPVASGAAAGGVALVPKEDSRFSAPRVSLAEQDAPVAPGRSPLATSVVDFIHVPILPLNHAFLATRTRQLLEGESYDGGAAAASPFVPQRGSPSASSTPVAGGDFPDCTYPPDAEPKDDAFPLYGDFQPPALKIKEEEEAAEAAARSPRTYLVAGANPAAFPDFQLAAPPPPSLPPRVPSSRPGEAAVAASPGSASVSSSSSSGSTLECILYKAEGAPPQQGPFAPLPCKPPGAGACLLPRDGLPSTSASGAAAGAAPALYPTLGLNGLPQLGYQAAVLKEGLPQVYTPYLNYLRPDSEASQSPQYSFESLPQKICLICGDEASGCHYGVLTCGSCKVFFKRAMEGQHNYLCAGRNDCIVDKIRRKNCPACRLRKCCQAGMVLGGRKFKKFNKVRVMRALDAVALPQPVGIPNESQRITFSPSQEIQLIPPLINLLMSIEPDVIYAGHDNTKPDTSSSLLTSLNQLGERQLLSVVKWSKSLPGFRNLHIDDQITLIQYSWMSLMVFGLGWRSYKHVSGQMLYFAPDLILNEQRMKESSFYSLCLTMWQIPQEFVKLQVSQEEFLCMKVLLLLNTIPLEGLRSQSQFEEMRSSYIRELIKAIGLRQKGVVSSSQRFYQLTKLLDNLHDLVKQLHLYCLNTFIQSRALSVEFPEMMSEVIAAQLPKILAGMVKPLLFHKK
Description: The progestomimetic activity was determined by the hormonal receptor method of Raynaud et al [J. Ster. Biochem., Vol. 6 (1975), p-615-622 and Physiology and Genetics of Reproduction, part A (1975), p. 143-160]. Immature rabbits received subcutaneously 25γ of estradiol and 5 days later, the animals were sacrificed and the uterus was removed and homogenized in a buffered solution of 10 mM of tromethamine, 0.25 M of saccharose and a pH of 7.4 with hydrochloric acid. The homogenate was centrifuged at 105,000 g during one hour and the surnageant or cytosol was adjusted to a dilution of 1/50 (weight/volume). The resulting solution was incubated at 0° C. for 2 hours in tubes with the same volume of cytosol with a fixed concentration of tritiated 17,21-dimethyl-19-nor-Δ^4,9 -pregnadiene-3-20-dione (designated as tritiated Product R) in the presence or not of an increasing concentration of radioinactive 17,21-dimethyl-19-nor-Δ^4,9 -pregnadiene-3,20-dione (designated as cold product R) or progesterone or the test product. The radioactivity of the tritiated product R was determined after 2 hours by the technique of adsorption on carbon-dextran (1.25-0.625%). The curves representing the percentage of tritiated product R as a function of the log of the concentration, of cold product R, of progresterone or the test products and the I50 straight line parallel to the axis of the abcissess and ordinates [formula] were ploted. B/T max. is the percentage of tied tritiated product R when the product is not added and B/T min. is the percentage of tied tritiated product R when the maximum amount of cold product R is added. The intersections of these I50 straight lines and the curves permit the determination of the values: CP and CX: CP - concentration of cold progesterone which inhibits by 50% the fixation of the tritiated product R and CX - concentration of test product which inhibits by 50% the fixation of the tritiated product R. The relative affinity of the test product (ARL) was determined by the formula [formula] and the results are reported in Table I.

[2] = biological target: T2, prostatic reception of testosterone (Rattus norvegicus, UniProt P15207); test: Androgenic activity by hormonal receptor method (displacement of tritiated product R in rat prostate cytosol); assay type: binding; details: for relative affinity of the test product (ARL), androgenic: castrated male rat prostate cytosol, 0° C., 2 hours, testosterone = 100; for affinity for prostatic reception of testosterone (in words) / androgenic activity (in words): conclusion from Table II
T2 construct: The prostate was recovered from male rats castrated 24 hours earlier and was homogenized; from tissue; host or cells: prostate cytosol (105,000 g supernatant) of male rats castrated 24 hours earlier
T2 sequence (P15207 1-902): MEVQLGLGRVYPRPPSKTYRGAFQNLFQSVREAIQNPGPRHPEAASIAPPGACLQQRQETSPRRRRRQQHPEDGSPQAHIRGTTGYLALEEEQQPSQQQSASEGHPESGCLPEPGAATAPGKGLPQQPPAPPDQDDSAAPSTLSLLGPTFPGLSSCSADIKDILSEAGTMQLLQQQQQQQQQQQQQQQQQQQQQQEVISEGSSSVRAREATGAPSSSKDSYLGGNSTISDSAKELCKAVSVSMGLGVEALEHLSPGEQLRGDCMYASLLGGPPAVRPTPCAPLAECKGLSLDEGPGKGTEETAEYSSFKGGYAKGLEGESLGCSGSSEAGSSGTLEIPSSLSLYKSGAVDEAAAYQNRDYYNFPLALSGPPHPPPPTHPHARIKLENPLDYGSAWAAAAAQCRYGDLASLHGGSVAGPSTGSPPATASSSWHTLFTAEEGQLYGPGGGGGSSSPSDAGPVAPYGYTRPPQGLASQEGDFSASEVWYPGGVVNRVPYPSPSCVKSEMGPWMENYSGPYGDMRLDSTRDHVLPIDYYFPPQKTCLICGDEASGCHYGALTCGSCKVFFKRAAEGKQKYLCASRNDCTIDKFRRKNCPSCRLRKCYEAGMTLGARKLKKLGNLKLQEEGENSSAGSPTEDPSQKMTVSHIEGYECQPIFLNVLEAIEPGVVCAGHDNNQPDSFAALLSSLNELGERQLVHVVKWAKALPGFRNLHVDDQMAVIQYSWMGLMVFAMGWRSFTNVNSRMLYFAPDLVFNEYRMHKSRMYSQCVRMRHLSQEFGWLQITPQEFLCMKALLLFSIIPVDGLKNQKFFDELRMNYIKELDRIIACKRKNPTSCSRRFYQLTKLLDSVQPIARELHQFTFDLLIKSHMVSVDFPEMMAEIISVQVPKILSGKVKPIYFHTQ
Description: This test also used the method of Raynaud et al discussed above. The prostate was recovered from male rats castrated 24 hours earlier and was homogenized in a buffer containing 10 mM of tromethamine and 0.25 M of saccharose and sufficient hydrochloric acid for a pH of 7.4 The homogenate was centrifuged at 105,000 g for one hour and the surnageant liquid or cytosol was adjusted to a dilution of 1/5 (weight/volume).
The radioactivity of the tied tritiated product was determined after 2 hours by absorption technique on carbondextran (1.25%-0.625%). […] B/T max. is the percentage of tied tritiated product R when the product is not added and B/T min. is the percentage of tied tritiated product R when the maximum amount of cold product R is added.

[3] = tested on: proliferation of endometric lacework (uterus); test: In vivo progestomimetic activity, Clauberg test on immature rabbits; set-up: species or system rabbit; details: for progestomimetic activity in vivo (in words): compared with ethynylnortestosterone, Table III; for endometrial proliferation, MacPhail Units: subcutaneous, 5 days
Description: The progestomimetic activity of products A, B and C were determined by the Clauberg test on immature rabbits previously sensibilized by subcutaneous administration of estradiol for 5 days at a daily dose of 5 μg. The test products were used in solution in olive oil containing 5% of benzyl alcohol and were subcutaneously administered for 5 days at different doses. The animals were killed on the 6th day and the uterus was removed to determine the proliferation of endometric lacework which is characteristic of progestomimetic activity. The results were compared with ethynylnortesterone administered in the same method in the same solvent. The results were expressed in MacPhail units in Table III.

SMILES | affinity for specific uterine reception of progesterone (in words) ([1]; compared with progesterone) | progestomimetic activity (in words) [1] | relative affinity of the test product (ARL), progestomimetic [1] | relative affinity of the test product (ARL), androgenic [2] | affinity for prostatic reception of testosterone (in words) [2] | androgenic activity (in words) [2] | progestomimetic activity in vivo (in words) [3] | endometrial proliferation, MacPhail Units ([3]; dose 100 γ) [MacPhail Units] | endometrial proliferation, MacPhail Units ([3]; dose 500 γ) [MacPhail Units] | endometrial proliferation, MacPhail Units ([3]; dose 2500 γ) [MacPhail Units] | activity weaker than progesterone ([1]; compared with progesterone) | endometrial proliferation, MacPhail Units ([3]; dose 1 mg) [MacPhail Units] | endometrial proliferation, MacPhail Units ([3]; dose 2 mg) [MacPhail Units] | endometrial proliferation, MacPhail Units ([3]; dose 200 γ) [MacPhail Units]
C[C@]12CC[C@H]3[C@@H](CCC4=CC(=O)CC[C@@H]43)[C@@H]1CC[C@@]2(O)c1ccccc1 [Product A, 17α-phenyl-Δ^4-estrene-17β-ol-3-one] | comparable to that of progesterone | progestomimetics | 80 | 0.3 | practically devoid of an affinity | devoid of adrogenic activity | progestomimetic activity greater than ethynylnortestosterone | 2 | 2.7 | 3 | – | – | – | –
C[C@]12CCC3=C4CCC(=O)C=C4CC[C@H]3[C@@H]1CC[C@@]2(O)c1ccccc1 [Product B, 17α-phenyl-Δ^4,9-estradiene-17β-ol-3-one] | – | progestomimetics | 37 | 0.2 | practically devoid of an affinity | devoid of adrogenic activity | progestomimetic activity greater than ethynylnortestosterone | – | – | – | about 3 times | 2.8 | 3.0 | 1
C[C@]12C=CC3=C4CCC(=O)C=C4CC[C@H]3[C@@H]1CC[C@@]2(O)c1ccccc1 [Product C, 17α-phenyl-Δ^4,9,11-estratriene-17β-ol-3-one] | – | progestomimetics | 27 | ≤ 0.1 | practically devoid of an affinity | devoid of adrogenic activity | about the same order of activity as ethynylnortestosterone | – | – | – | about 3 times | 1.8 | 2.9 | 0.8
C#C[C@]1(O)CC[C@H]2[C@@H]3CCC4=CC(=O)CC[C@@H]4[C@H]3CC[C@@]21C [ethynylnortestosterone, reference compound] | – | – | – | – | – | – | – | 1.2 | 1.5 | 2 | – | – | – | –
